Reference: patent US4110474A, “Tetramethylpentane blood substitutes” (Suntech, Inc., priority 1977, dated 1978)
Like-named read-outs stand apart in the source and are kept apart here.

Conditions: mouse, in vivo
Experimental: Mice were injected with the various emulsions. The mice were killed at intervals thereafter, the liver and spleen analyzed, and the percentage of original amount of PF material injected and still in the liver and spleen was determined.

body retention: lack body retention characteristics
% FC (Of Injected Dose) in LIVER (2880 min): 15%
% FC (Of Injected Dose) in SPLEEN (2880 min): 1.4%
% FC (Of Injected Dose) in LIVER (10080 min): 12%
% FC (Of Injected Dose) in SPLEEN (10080 min): 6%
% FC (Of Injected Dose) in LIVER (20160 min): 9.3%
% FC (Of Injected Dose) in SPLEEN (20160 min): 9.2%
% FC (Of Injected Dose) in LIVER (41760 min): 2.3%
% FC (Of Injected Dose) in SPLEEN (41760 min): 2.7%
Substance: perfluoromethylpentane
